#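 A five-concentration, 48-hour dose response in 96-well plates underlies each endpoint, interpolated linearly between surrounding concentrations. GI50 = concentration required for 50% inhibition of growth. Definition used: TGI = concentration required for complete inhibition of growth.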
# Columns and labels:
# Assay in all cases: NCI tumour cell line growth inhibition, 48 h
# CCRF-CEM leukemia = tested on: CCRF-CEM leukemia
# SK-MEL-5 melanoma = tested on: SK-MEL-5 melanoma
# M14 melanoma = tested on: M14 melanoma
# SN12C renal = tested on: SN12C renal
# NCI/ADR-RES ovarian = tested on: NCI/ADR-RES ovarian
# UACC-257 melanoma = tested on: UACC-257 melanoma
# HS 578T breast = tested on: HS 578T breast
# COLO 205 colon = tested on: COLO 205 colon
# SF-295 CNS = tested on: SF-295 CNS
# IGROV1 ovarian = tested on: IGROV1 ovarian
# DU-145 prostate = tested on: DU-145 prostate
# U251 CNS = tested on: U251 CNS
# SNB-19 CNS = tested on: SNB-19 CNS
# OVCAR-3 ovarian = tested on: OVCAR-3 ovarian
# OVCAR-8 ovarian = tested on: OVCAR-8 ovarian
# HT29 colon = tested on: HT29 colon
# HL-60(TB) leukemia = tested on: HL-60(TB) leukemia
# NCI-H23 lung = tested on: NCI-H23 lung
# MDA-MB-435 = tested on: MDA-MB-435
# KM12 colon = tested on: KM12 colon
# A498 renal = tested on: A498 renal
# SF-539 CNS = tested on: SF-539 CNS
# MOLT-4 leukemia = tested on: MOLT-4 leukemia
# MDA-MB-231 breast = tested on: MDA-MB-231 breast
# PC-3 prostate = tested on: PC-3 prostate
# BT-549 breast = tested on: BT-549 breast
# K-562 leukemia = tested on: K-562 leukemia
# SF-268 CNS = tested on: SF-268 CNS
# 786-0 renal = tested on: 786-0 renal
# MCF7 breast = tested on: MCF7 breast
# ACHN renal = tested on: ACHN renal
# HCT-116 colon = tested on: HCT-116 colon
# HOP-92 NSCLC = tested on: HOP-92 NSCLC
# NCI-H522 lung = tested on: NCI-H522 lung
# HCT-15 colon = tested on: HCT-15 colon
# UO-31 renal = tested on: UO-31 renal
# CAKI-1 renal = tested on: CAKI-1 renal
# SK-MEL-2 melanoma = tested on: SK-MEL-2 melanoma
# NCI-H226 lung = tested on: NCI-H226 lung
# SK-MEL-28 melanoma = tested on: SK-MEL-28 melanoma
# SNB-75 CNS = tested on: SNB-75 CNS
# HCC-2998 colon = tested on: HCC-2998 colon
# UACC-62 melanoma = tested on: UACC-62 melanoma
# OVCAR-4 ovarian = tested on: OVCAR-4 ovarian
# A549 NSCLC = tested on: A549 NSCLC
# RPMI-8226 leukemia = tested on: RPMI-8226 leukemia
# MDA-MB-468 breast = tested on: MDA-MB-468 breast
# TK-10 renal = tested on: TK-10 renal
# SW-620 colon = tested on: SW-620 colon
# SK-OV-3 ovarian = tested on: SK-OV-3 ovarian
# MALME-3M melanoma = tested on: MALME-3M melanoma
# EKVX NSCLC = tested on: EKVX NSCLC
# OVCAR-5 ovarian = tested on: OVCAR-5 ovarian
# HOP-62 NSCLC = tested on: HOP-62 NSCLC
# RXF 393 renal = tested on: RXF 393 renal
# T-47D breast = tested on: T-47D breast
# NCI-H460 lung = tested on: NCI-H460 lung
# LOX IMVI melanoma = tested on: LOX IMVI melanoma
compound,measurement,setting,value
O=C(c1ccc(OCCN2CCOCC2)cc1)C1[C@H](c2ccc(Cl)cc2)[C@@H](c2ccccc2)NC12C(=O)Nc1ccc(Br)cc12 (stereo partly specified),GI50,CCRF-CEM leukemia,4.42 µM
same,TGI,CCRF-CEM leukemia,12.8 µM
same,GI50,SK-MEL-5 melanoma,2.69 µM
same,TGI,SK-MEL-5 melanoma,5.11 µM
same,GI50,M14 melanoma,2.56 µM
same,TGI,M14 melanoma,5.44 µM
same,GI50,SN12C renal,2.35 µM
same,TGI,SN12C renal,4.53 µM
same,GI50,NCI/ADR-RES ovarian,3.87 µM
same,TGI,NCI/ADR-RES ovarian,12.1 µM
same,GI50,UACC-257 melanoma,3.69 µM
same,TGI,UACC-257 melanoma,13 µM
same,GI50,HS 578T breast,2.58 µM
same,TGI,HS 578T breast,7.19 µM
same,GI50,COLO 205 colon,2.52 µM
same,TGI,COLO 205 colon,4.93 µM
same,GI50,SF-295 CNS,2.4 µM
same,TGI,SF-295 CNS,4.94 µM
same,GI50,IGROV1 ovarian,3.32 µM
same,TGI,IGROV1 ovarian,9.74 µM
same,GI50,DU-145 prostate,3.91 µM
same,TGI,DU-145 prostate,11.8 µM
same,GI50,U251 CNS,2.6 µM
same,TGI,U251 CNS,5.52 µM
same,GI50,SNB-19 CNS,4.46 µM
same,TGI,SNB-19 CNS,> 16.3 µM
same,GI50,OVCAR-3 ovarian,2.56 µM
same,TGI,OVCAR-3 ovarian,6.91 µM
same,GI50,OVCAR-8 ovarian,4.37 µM
same,TGI,OVCAR-8 ovarian,> 16.3 µM
same,GI50,HT29 colon,2.49 µM
same,TGI,HT29 colon,5.38 µM
same,GI50,HL-60(TB) leukemia,4.2 µM
same,TGI,HL-60(TB) leukemia,12 µM
same,GI50,NCI-H23 lung,2.87 µM
same,TGI,NCI-H23 lung,6.76 µM
same,GI50,MDA-MB-435,3.17 µM
same,TGI,MDA-MB-435,7.28 µM
same,GI50,KM12 colon,2.98 µM
same,TGI,KM12 colon,7.26 µM
same,GI50,A498 renal,3.05 µM
same,TGI,A498 renal,7.55 µM
same,GI50,SF-539 CNS,2.73 µM
same,TGI,SF-539 CNS,5.19 µM
same,GI50,MOLT-4 leukemia,2.9 µM
same,TGI,MOLT-4 leukemia,10.2 µM
same,GI50,MDA-MB-231 breast,2.66 µM
same,TGI,MDA-MB-231 breast,5.09 µM
same,GI50,PC-3 prostate,2.96 µM
same,TGI,PC-3 prostate,9.34 µM
same,GI50,BT-549 breast,3.44 µM
same,TGI,BT-549 breast,8.33 µM
same,GI50,K-562 leukemia,3.87 µM
same,TGI,K-562 leukemia,> 16.3 µM
same,GI50,SF-268 CNS,3.66 µM
same,TGI,SF-268 CNS,> 16.3 µM
same,GI50,786-0 renal,2.95 µM
same,TGI,786-0 renal,6.69 µM
same,GI50,MCF7 breast,2.92 µM
same,TGI,MCF7 breast,10.2 µM
same,GI50,ACHN renal,3.84 µM
same,TGI,ACHN renal,14.3 µM
same,GI50,HCT-116 colon,2.63 µM
same,TGI,HCT-116 colon,5.45 µM
same,GI50,HOP-92 NSCLC,2.35 µM
same,TGI,HOP-92 NSCLC,6.69 µM
same,GI50,NCI-H522 lung,3.39 µM
same,TGI,NCI-H522 lung,8.58 µM
same,GI50,HCT-15 colon,2.69 µM
same,TGI,HCT-15 colon,6.23 µM
same,GI50,UO-31 renal,2.57 µM
same,TGI,UO-31 renal,7.86 µM
same,GI50,CAKI-1 renal,3 µM
same,TGI,CAKI-1 renal,> 16.3 µM
same,GI50,SK-MEL-2 melanoma,2.32 µM
same,TGI,SK-MEL-2 melanoma,4.8 µM
same,GI50,NCI-H226 lung,2.94 µM
same,TGI,NCI-H226 lung,7.82 µM
same,GI50,SK-MEL-28 melanoma,2.7 µM
same,TGI,SK-MEL-28 melanoma,5.08 µM
same,GI50,SNB-75 CNS,2.37 µM
same,TGI,SNB-75 CNS,> 16.3 µM
same,GI50,HCC-2998 colon,2.61 µM
same,TGI,HCC-2998 colon,5.37 µM
same,GI50,UACC-62 melanoma,2.22 µM
same,TGI,UACC-62 melanoma,4.46 µM
same,GI50,OVCAR-4 ovarian,4.33 µM
same,TGI,OVCAR-4 ovarian,> 16.3 µM
same,GI50,A549 NSCLC,4.27 µM
same,TGI,A549 NSCLC,> 16.3 µM
same,GI50,RPMI-8226 leukemia,4.05 µM
same,TGI,RPMI-8226 leukemia,16.1 µM
same,GI50,MDA-MB-468 breast,2.83 µM
same,TGI,MDA-MB-468 breast,7.65 µM
same,GI50,TK-10 renal,3.62 µM
same,TGI,TK-10 renal,11.1 µM
same,GI50,SW-620 colon,2.78 µM
same,TGI,SW-620 colon,5.68 µM
same,GI50,SK-OV-3 ovarian,4.46 µM
same,TGI,SK-OV-3 ovarian,> 16.3 µM
same,GI50,MALME-3M melanoma,2.39 µM
same,TGI,MALME-3M melanoma,5.09 µM
same,GI50,EKVX NSCLC,2.71 µM
same,TGI,EKVX NSCLC,11.2 µM
same,GI50,OVCAR-5 ovarian,2.95 µM
same,TGI,OVCAR-5 ovarian,9.56 µM
same,GI50,HOP-62 NSCLC,2.83 µM
same,TGI,HOP-62 NSCLC,6.58 µM
same,GI50,RXF 393 renal,1.84 µM
same,TGI,RXF 393 renal,4.57 µM
same,GI50,T-47D breast,3.09 µM
same,TGI,T-47D breast,> 16.3 µM
same,GI50,NCI-H460 lung,2.8 µM
same,TGI,NCI-H460 lung,5.59 µM
same,GI50,LOX IMVI melanoma,2.43 µM
same,TGI,LOX IMVI melanoma,4.59 µM
